Assay results published in PubChem BioAssay (NCI).
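Results reflect a 48-hour exposure of cells in 96-well plates to compound at five concentrations. GI50: concentration for 50% inhibition of growth. Definition used: TGI = concentration required for complete inhibition of growth.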

Legend:
Experiment in all cases: inhibition of tumour cell growth, NCI panel, 48 h
EKVX NSCLC = system: EKVX NSCLC
HL-60(TB) leukemia = system: HL-60(TB) leukemia
HOP-62 NSCLC = system: HOP-62 NSCLC
M14 melanoma = system: M14 melanoma
NCI-H522 lung = system: NCI-H522 lung
OVCAR-3 ovarian = system: OVCAR-3 ovarian
SK-MEL-28 melanoma = system: SK-MEL-28 melanoma
SNB-75 CNS = system: SNB-75 CNS
UACC-257 melanoma = system: UACC-257 melanoma
UO-31 renal = system: UO-31 renal

Row | Structure (SMILES) | TGI (EKVX NSCLC) | TGI (HL-60(TB) leukemia) | TGI (HOP-62 NSCLC) | TGI (M14 melanoma) | TGI (NCI-H522 lung) | TGI (OVCAR-3 ovarian) | TGI (SK-MEL-28 melanoma) | TGI (SNB-75 CNS) | TGI (UACC-257 melanoma) | TGI (UO-31 renal) | GI50 (EKVX NSCLC) | GI50 (HL-60(TB) leukemia) | GI50 (HOP-62 NSCLC) | GI50 (M14 melanoma) | GI50 (NCI-H522 lung) | GI50 (OVCAR-3 ovarian) | GI50 (SK-MEL-28 melanoma) | GI50 (SNB-75 CNS) | GI50 (UACC-257 melanoma) | GI50 (UO-31 renal)
1 | CCCCCCC(C)CCCCCCCCCCC(=O)O (stereo not given) | > 100 µM | > 100 µM | > 100 µM | > 100 µM | > 100 µM | > 100 µM | > 100 µM | > 100 µM | > 100 µM | > 100 µM | – | – | – | – | – | – | – | – | – | –
2 | COc1cc(CNc2nc3ccc(C(F)(F)F)cc3nc2-c2ccccc2)cc(OC)c1OC | 59.6 µM | 55.9 µM | > 100 µM | > 100 µM | 55.7 µM | > 100 µM | > 100 µM | 61.7 µM | > 100 µM | 55.6 µM | – | – | – | – | – | – | – | – | – | –
3 | O=c1[nH]c2cc([N+](=O)[O-])ccc2nc1/C(=N\Nc1ccccc1)C(O)c1ccc2c(c1)OCO2 (stereo not given) | > 100 µM | > 100 µM | > 100 µM | > 100 µM | > 100 µM | > 100 µM | > 100 µM | > 100 µM | > 100 µM | > 100 µM | – | – | – | – | – | – | – | – | – | –
4 | CC(C)Oc1ccc(C(=O)Cn2ccnc2)cc1-n1c(CN2CCN(C(=O)COc3ccc(Cl)cc3)CC2)nc2ccccc2c1=O | 97 µM | 27.7 µM | 44.9 µM | 32.6 µM | 14.8 µM | 13.2 µM | 29.9 µM | 32.2 µM | 39.6 µM | 2.98 µM | 16.5 µM | 2.3 µM | 15 µM | 14 µM | 2.24 µM | 2.18 µM | 14.1 µM | 5.49 µM | 13.8 µM | 1.56 µM
5 | CCOC(OC1=C(C#N)CCCC1)C(CC)[Se]c1ccccc1 (stereo not given) | 69.2 µM | 42.9 µM | > 100 µM | > 100 µM | 29 µM | 54.6 µM | 61.8 µM | 80.7 µM | > 100 µM | > 100 µM | – | – | – | – | – | – | – | – | – | –
6 | CC(=O)n1c(=O)c2cc3c(=O)n(-c4cccc(C#N)c4)c(=O)c3cc2c1=O | > 100 µM | > 100 µM | > 100 µM | > 100 µM | > 100 µM | > 100 µM | > 100 µM | 54.6 µM | > 100 µM | > 100 µM | – | – | – | – | – | – | – | – | – | –
7 | C/C1=C\CC[C@@](C)(O)[C@@H]2C[C@H](CC/C(C)=C/CC1)C1(CC1)C(=O)O2 | > 100 µM | 33.4 µM | > 100 µM | 91.6 µM | > 100 µM | 47.4 µM | 41.3 µM | > 100 µM | > 100 µM | > 100 µM | 45.4 µM | 15.4 µM | 45.1 µM | 32.7 µM | 35.1 µM | 22 µM | 18 µM | 30.8 µM | 77.8 µM | 46.5 µM
8 | Cn1c(=O)nc2n(-c3ccc(Cl)c(C(F)(F)F)c3)c3ccccc3nc-2c1=O | > 83.9 µM | 46.2 µM | > 100 µM | > 91.3 µM | 73 µM | > 100 µM | > 100 µM | > 100 µM | 36.8 µM | > 100 µM | – | – | – | – | – | – | – | – | – | –
9 | COc1ccc(C2=C(N3CCc4ccccc43)C(=O)NC2=O)cc1 | > 25 µM | > 25 µM | > 25 µM | > 25 µM | > 25 µM | > 25 µM | > 25 µM | > 25 µM | > 25 µM | > 25 µM | > 24 µM | > 21.1 µM | > 25 µM | > 25 µM | > 17.9 µM | > 25 µM | > 25 µM | > 24.1 µM | > 25 µM | 9.88 µM
10 | CCn1c(-c2nonc2N)nc2ccncc21 | > 25 µM | > 25 µM | > 25 µM | > 25 µM | > 25 µM | > 25 µM | > 25 µM | > 25 µM | > 25 µM | > 25 µM | > 25 µM | > 25 µM | > 25 µM | > 25 µM | > 25 µM | > 25 µM | > 25 µM | > 25 µM | > 25 µM | > 25 µM
11 | COc1cccc2c(=O)c3c(sc12)c(NCCCNCCO)nc1ccccc13 | 3.05 µM | 3.5 µM | 2.81 µM | 3.22 µM | 3.45 µM | 3.16 µM | 3.46 µM | 7.44 µM | 3.79 µM | 2.28 µM | 1.52 µM | 1.73 µM | 1.2 µM | 1.7 µM | 1.58 µM | 1.64 µM | 1.9 µM | 0.964 µM | 1.94 µM | 1.03 µM
